The molecules below were run against T1, human GPR119 (Homo sapiens, UniProt Q8TDV5) (assay: AlphaScreen cAMP assay, activation of GPR119 in Min-6/hGPR119 cells). Conditions: MIN6 cells stably transfected with human GPR119; intracellular cAMP; 45 minutes incubation at room temperature.
T1 construct: expression vector for human GPR119 cDNA (Acc. No. NP_848566); expressed in transfected cells
T1 sequence (Q8TDV5 1-335): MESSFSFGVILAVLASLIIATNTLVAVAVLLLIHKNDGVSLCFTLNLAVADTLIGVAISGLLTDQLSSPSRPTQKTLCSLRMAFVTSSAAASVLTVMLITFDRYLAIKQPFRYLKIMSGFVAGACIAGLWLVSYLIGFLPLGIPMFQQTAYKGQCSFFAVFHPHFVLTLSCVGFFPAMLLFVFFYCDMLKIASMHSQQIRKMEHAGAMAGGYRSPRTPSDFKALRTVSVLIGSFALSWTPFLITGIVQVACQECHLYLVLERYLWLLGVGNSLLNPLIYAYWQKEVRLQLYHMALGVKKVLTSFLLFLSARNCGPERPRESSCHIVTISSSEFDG
Format: cell-based
Procedure: The compounds of formula I according to the invention modulate the activity of the G-protein-coupled receptor GPR119. The effect of the compounds on the activation of GPR119 and on the stimulation of intracellular cAMP concentration is determined using the AlphaScreen cAMP Assay Kit (Cat. No. #6760625R) made by PerkinElmer.
MIN6 cells [Miyazaki J et al. Endocrinology. 1990 July; 127(1):126-32] are stably transfected with an expression vector for human GPR119 cDNA (Acc. No. NP_848566). Min-6/hGPR119 cells are cultured in DMEM, 10% FBS, 500 μM β-mercaptoethanol, 0.3 mg/mL Geniticin, 2 mM GlutaMAX at 37° C. 5% CO2. For the assay, the cells are seeded in Optiplates (white, 384-well, 160 W— barcoded, TC, sterile with lid, Cat. No. #6007688 (Perkin Elmer); 10000 cells/well; 50 μl). The plates covered with lids are then incubated for 24 hours at 37° C./5% CO2. After the medium is aspirated from the wells completely, 10 μl of the test compound are added, the compounds are diluted using stimulating buffer (140 mM NaCl, 3.6 mM KCl, 0.5 mM NaH2PO4, 0.5 mM MgSO4, 1.5 mM CaCl2, 10 mM Hepes, 5 mM NaHCO3; pH 7.4. 0.5 mM IBMX and 0.1% BSA, the final DMSO concentration is 1%). After 45 minutes incubation at room temperature (approx. 20° C.), the cAMP concentrations are determined using the AlphaScreen cAMP Assay Kit (Cat. No. #6760625R from PerkinElmer).
Work on CC(C)c1nc(N2CCC(C3Cc4cc(-c5ccc(CS(C)(=O)=O)cc5F)ncc4O3)CC2)no1 (centres unmarked) [Example 24, 5-(2-Fluoro-4-methanesulfonylmethyl-phenyl)-2-[1-(5-isopropyl-[1,2,4]oxadiazol-3-yl)-piperidin-4-yl]-2,3-dihydro-furo[2,3-c]pyridine] yielded an EC50 of 0.06 µM.
In the case of CCc1cnc(N2CCC(C3Cc4cc(-c5ccc(C(=O)N(C)C6CCCOC6)cc5)ccc4O3)CC2)nc1 (centres unmarked) [Example 61], the EC50 is reported as 0.047 µM.
For CCc1cnc(N2CCC(C3Cc4cc(-c5ccc(S(C)(=O)=O)cc5)ccc4O3)CC2)nc1 (centres unmarked) [Example 1, 5-Ethyl-2-{4-[5-(4-methanesulfonyl-phenyl)-2,3-dihydro-benzofuran-2-yl]-piperidin-1-yl}-pyrimidine], the EC50 was 0.021 µM.
For CCc1cnc(N2CCC([C@H]3Cc4cc(C5=CCN(S(C)(=O)=O)CC5)ncc4O3)CC2)nc1 (single isomer, unassigned) [Example 31], the EC50 was 0.003 µM.
In the case of CCc1cnc(N2CCC(C3Cc4cc(-c5ccc(C(=O)N6CCC(OC)CC6)cc5)ccc4O3)CC2)nc1 (centres unmarked) [Example 69], the EC50 is reported as 0.048 µM.
CS(=O)(=O)c1ccc(-c2cc3c(cn2)O[C@H](C2CCN(c4ncc(Cl)cn4)CC2)C3)cc1 (single isomer, unassigned) [Example 90] showed an EC50 of 0.06 µM.
Work on CCc1cnc(N2CCC(C3Cc4cc(-c5ccc(C(=O)N6CCC(O)C6)cc5)ccc4O3)CC2)nc1 (centres unmarked) [Example 70] yielded an EC50 of 0.108 µM.
Work on CCc1cnc(N2CCC(C3Cc4cc(C5=CCN(S(C)(=O)=O)CC5)ncc4O3)CC2)nc1 (centres unmarked) [Example 18, 2-[1-(5-Ethyl-pyrimidin-2-yl)-piperidin-4-yl]-5-(1-methanesulfonyl-1,2,3,6-tetrahydro-Pyridin-4-yl)-2,3-dihydro-furo[2,3-c]pyridine] yielded an EC50 of 0.002 µM.
CCCc1nc(N2CCC(C3Cc4cc(-c5ccc(CS(C)(=O)=O)cc5)ncc4O3)CC2)no1 (centres unmarked) [Example 17, 5-(4-Methanesulfonylmethyl-phenyl)-2-[1-(5-propyl-[1,2,4]oxadiazol-3-yl)-piperidin-4-yl]-2,3-dihydro-furo[2,3-c]pyridine] was tested, and the EC50 was 0.021 µM.
With CS(=O)(=O)N1CC=C(c2cc3c(cn2)O[C@@H](C2CCN(c4ncc(C5CC5)cn4)CC2)C3)CC1 (single isomer, unassigned) [Example 91] the EC50 was 0.003 µM.
CC(C)c1nc(N2CCC(C3Cc4cc(-c5ccc(CS(C)(=O)=O)cc5)ncc4O3)CC2)no1 (centres unmarked) [Example 16] showed an EC50 of 0.017 µM.
Molecule CC(C)c1nc(N2CCC([C@]3(C)Cc4cc(C5=CCN(S(C)(=O)=O)CC5)ncc4O3)CC2)no1 (single isomer, unassigned) [Example 43] has an EC50 of 0.009 µM.
Work on CC(C)(C)c1nc(N2CCC(C3Cc4cc(C5=CCN(S(C)(=O)=O)CC5)ncc4O3)CC2)no1 (centres unmarked) [Example 39] yielded an EC50 of 0.008 µM.
CCCc1nc(N2CCC(C3Cc4cc(C5=CCN(S(C)(=O)=O)CC5)ncc4O3)CC2)no1 (centres unmarked) [Example 23, 5-(1-Methanesulfonyl-1,2,3,6-tetrahydro-pyridin-4-yl)-2-[1-(5-propyl-[1,2,4]oxadiazol-3-yl)-piperidin-4-yl]-2,3-dihydro-furo[2,3-c]pyridine] was tested, and the EC50 was 0.007 µM.
CS(=O)(=O)N1CC=C(c2cc3c(cn2)O[C@H](C2CCN(c4ncc(C(F)(F)F)cn4)CC2)C3)CC1 (single isomer, unassigned) [Example 52] showed an EC50 of 0.019 µM.
Work on COc1cnc(N2CCC([C@H]3Cc4cc(C5=CCN(S(C)(=O)=O)CC5)ncc4O3)CC2)nc1 (single isomer, unassigned) [Example 92] yielded an EC50 of 0.01 µM.
Work on C[C@@]1(C2CCN(c3cnc(C(F)(F)F)cn3)CC2)Cc2cc(C3=CCN(S(C)(=O)=O)CC3)ncc2O1 (single isomer, unassigned) [Example 38] yielded an EC50 of 0.014 µM.
CCCc1noc(N2CCC(C3Cc4cc(-c5ccc(S(C)(=O)=O)cc5)ccc4O3)CC2)n1 (centres unmarked) [Example 4, 4-[5-(4-Methanesulfonyl-phenyl)-2,3-dihydro-benzofuran-2-yl]-1-(3-propyl-[1,2,4]oxadiazol-5-yl)-piperidine] showed an EC50 of 0.052 µM.
CCc1cnc(N2CCC(C3Cc4cc(-c5ccc(C(=O)NCC6COCCO6)cc5)ccc4O3)CC2)nc1 (centres unmarked) [Example 77] was tested, and the EC50 was 0.019 µM.
CCc1cnc(N2CCC(C3Cc4cc(-c5ccc(C(=O)NCc6cocn6)cc5)ccc4O3)CC2)nc1 (centres unmarked) [Example 64] was tested, and the EC50 was 0.033 µM.
CC1(c2nc(N3CCC([C@@H]4Cc5cc(C6=CCN(S(C)(=O)=O)CC6)ncc5O4)CC3)no2)CC1 (single isomer, unassigned) [Example 57] was tested, and the EC50 was 0.036 µM.
Molecule CC(C)c1noc(N2CCC(C3Cc4cc(-c5ccc(CS(C)(=O)=O)cc5)ncc4O3)CC2)n1 (centres unmarked) [Example 13, 2-[1-(3-Isopropyl-[1,2,4]oxadiazol-5-yl)-piperidin-4-yl]-5-(4-methanesulfonylmethyl-phenyl)-2,3-dihydro-furo[2,3-c]pyridine] has an EC50 of 0.028 µM.
CCCc1noc(N2CCC([C@]3(C)Cc4cc(-c5ccc(S(C)(=O)=O)cc5)ncc4O3)CC2)n1 (single isomer, unassigned) [Example 27] showed an EC50 of 0.015 µM.
Work on Cc1cnc(N2CCC(C3Cc4cc(-c5ccc(S(C)(=O)=O)cc5)ncc4O3)CC2)cn1 (centres unmarked) [Example 10, 5-(4-Methanesulfonyl-phenyl)-2-[1-(5-methyl-pyrazin-2-yl)-piperidin-4-yl]-2,3-dihydro-furo[2,3c]pyridine] yielded an EC50 of 0.152 µM.
For CS(=O)(=O)c1ccc(-c2ccc3c(c2)CC(C2CCN(c4nc(C5CC5)no4)CC2)O3)cc1 (centres unmarked) [Example 3, 1-(3-Cyclopropyl-[1,2,4]oxadiazol-5-yl)-4-[5-(4-methanesulfonyl-phenyl)-2,3-dihydro-benzofuran-2-yl]-piperidine], the EC50 was 0.071 µM.
CS(=O)(=O)N1CC=C(c2cc3c(cn2)O[C@@H](C2CCN(c4ncc(C(F)(F)F)cc4F)CC2)C3)CC1 (single isomer, unassigned) [Example 84] gave an EC50 of 0.002 µM.
With CCCc1nc(N2CCC(C3Cc4cc(-c5ccc(S(C)(=O)=O)cc5)ncc4O3)CC2)no1 (centres unmarked) [Example 9, 5-(4-Methanesulfonyl-phenyl)-2-[1-(5-propyl-[1,2,4]oxadiazol-3-yl)-piperidin-4-yl]-2,3-dihydro-furo[2,3-c]pyridine] the EC50 was 0.012 µM.
Cc1cnc(N2CCC([C@]3(C)Cc4cc(C5=CCN(S(C)(=O)=O)CC5)ncc4O3)CC2)cn1 (single isomer, unassigned) [Example 53] showed an EC50 of 0.02 µM.
For CCCc1nc(N2CCC(C3Cc4cc(C5=CCN(S(C)(=O)=O)CC5)ncc4O3)CC2)no1 (single isomer, unassigned) [Example 44], the EC50 was 0.006 µM.
CC(C)c1nc(N2CCC([C@H]3Cc4cc(C5=CCN(S(C)(=O)=O)CC5)ncc4O3)CC2)no1 (single isomer, unassigned) [Example 45] gave an EC50 of 0.013 µM.
CS(=O)(=O)N1CC=C(c2cc3c(cn2)O[C@@H](C2CCN(c4cnc(C(F)(F)F)cn4)CC2)C3)CC1 (single isomer, unassigned) [Example 80] was tested, and the EC50 was 0.005 µM.
CCc1cnc(N2CCC(C3Cc4cc(-c5ccc(C(=O)NCC(C)(C)CO)cc5)ccc4O3)CC2)nc1 (centres unmarked) [Example 63] gave an EC50 of 0.112 µM.
In the case of COc1cnc(N2CCC([C@H]3Cc4cc(-c5ccc(S(C)(=O)=O)cc5)ncc4O3)CC2)nc1 (single isomer, unassigned) [Example 94], the EC50 is reported as 0.018 µM.
For CS(=O)(=O)N1CC=C(c2cc3c(cn2)O[C@H](C2CCN(c4ncc(Cl)cn4)CC2)C3)CC1 (single isomer, unassigned) [Example 86], the EC50 was 0.012 µM.
CCc1cnc(N2CCC([C@]3(C)Cc4cc(-c5ccc(S(C)(=O)=O)cc5)ncc4O3)CC2)nc1 (single isomer, unassigned) [Example 28] was tested, and the EC50 was 0.022 µM.
C[C@@]1(C2CCN(c3ncc(C(F)(F)F)cc3F)CC2)Cc2cc(C3=CCN(S(C)(=O)=O)CC3)ncc2O1 (single isomer, unassigned) [Example 40] was tested, and the EC50 was 0.002 µM.
Molecule C[C@@]1(C2CCN(c3ncc(C4CC4)cn3)CC2)Cc2cc(-c3ccc(S(C)(=O)=O)cc3)ncc2O1 (single isomer, unassigned) [Example 89] has an EC50 of 0.016 µM.
For Cc1cnc(N2CCC([C@H]3Cc4cc(C5=CCN(S(C)(=O)=O)CC5)ncc4O3)CC2)nc1 (single isomer, unassigned) [Example 33], the EC50 was 0.006 µM.
Work on CS(=O)(=O)c1ccc(-c2cc3c(cn2)O[C@@H](C2CCN(c4ncc(Cl)cn4)CC2)C3)cc1 (single isomer, unassigned) [Example 87] yielded an EC50 of 0.013 µM.
CC(C)c1nc(N2CCC(C3Cc4cc(C5=CCN(S(C)(=O)=O)CC5)ncc4O3)CC2)no1 (centres unmarked) [Example 22] gave an EC50 of 0.006 µM.
CC(C)c1noc(N2CCC([C@]3(C)Cc4cc(C5=CCN(S(C)(=O)=O)CC5)ncc4O3)CC2)n1 (single isomer, unassigned) [Example 42] was tested, and the EC50 was 0.011 µM.

From patent US8778926B2, “Compounds, pharmaceutical compositions and uses thereof” (Boehringer Ingelheim International GmbH, priority 2011, dated 2014)
